Laboratory results reported in US11490618B2, “Preservation compositions” (Conopco, Inc., priority 2018, dated 2022).

What was measured:
[1] = tested on: Pool 1 Gram negative non-fermenting bacteria: Pseudomonas aeruginosa, Pseudomonas putida & Burkholderia cepacia; test: Liquid broth checkerboard assay (MIC, ΣFIC synergy), microorganism Pool 1; assay type: cell-based; conditions: tryptic soy broth, 30° C., 24 hours, ΣFIC<1 synergistic
Text: (§1) The differing behaviours of inhibitory antimicrobials in isolation and mixtures have been widely explored using the concept of the Fractional Concentration and Fractional Inhibitory Concentration (FIC). See for instance J R W Lambert and R Lambert, J. Appl. Microbiol 95, 734 (2003); T. Jadavji, C G Prober and R Cheung, Antimicrobial Agents and Chemotherapy 26, 91 (1984), and WO 2004/006876. These parameters can be defined as follows: FC(component a)=Concentration of component a tested in the mixture/MIC(component a tested as a single active) FIC(component a)=MIC(component a tested in the mixture)/MIC(component a tested as a single active)
(§2) These relationships can be expressed mathematically by summing the fractional MIC values for all the components present in the mixture to give the “fractional inhibitory index”: ΣFIC=FIC(component 1)+FIC(component 2)
(§3) ΣFIC≥1 corresponds to additive or antagonistic activity
(§4) ΣFIC<1 corresponds to synergistic activity
(§5) Liquid broth assays (MIC and checkerboard) were conducted to identify the minimum concentration(s) of individual and binary combinations of preservation chemicals. A modified methodology to ISO 20776-1:2006 was utilised for the screening as follows. Stock solutions of preservation chemicals and tryptic soy broth were inoculated with 1-5×10^6 microorganisms and incubated at 30° C. for 24 hours, after which optical densities at OD600 nm were measured. […] Preservation chemicals were screened at a concentration range of 0.0156-2%.

[2] = tested on: Pool 2 Gram negative fermenting bacteria: Enterobacter gergoviae & Klebsiella species; test: Liquid broth checkerboard assay (MIC, ΣFIC synergy), microorganism Pool 2; assay type: cell-based; conditions: tryptic soy broth, 30° C., 24 hours, ΣFIC<1 synergistic
Text: as §1, §2, §3, §4, §5

[3] = binary combination with Citric Acid
[4] = binary combination with Itaconic acid

SMILES	ΣFIC synergy score [1, 3]	ΣFIC synergy score [1, 4]	ΣFIC synergy score [2, 3]	ΣFIC synergy score [2, 4]
CC(C)=CCC/C(C)=C/CO [Geraniol]	0.75	0.31	1.06	0.5
C=C(C)[C@@H]1CC=C(CO)CC1 [Perillyl alcohol]	0.38	0.38	0.5	0.38
